Results from patent US9464048B2, “5-oxo-ETE receptor antagonist compounds” (THE ROYAL INSTITUTION FOR THE ADVANCEMENT OF …, priority 2009, dated 2016).

Target: OXE receptor (Homo sapiens, UniProt Q8TDS5)
Assay: 5-oxo-ETE-induced calcium mobilization in human granulocytes
Assay type: cell-based
Design: Human granulocytes 95% neutrophils) are prepared from whole blood; endogenous in cells; host or cells: human blood granulocytes (>=95% neutrophils)
Settings: not given
Description: Primary Screening for Antagonist Activity: Calcium Mobilization in Human Granulocytes
Human granulocytes 95% neutrophils) are prepared from whole blood using Dextran 500 to remove red blood cells, followed by centrifugation over Ficoll-Paque to remove mononuclear cells and hypotonic lysis of any remaining red blood cells. After centrifugation the granulocytes are suspended in Ca^++/Mg^++-free phosphate-buffered saline (PBS). Granulocytes (10^7 cells/nil) are incubated with the acetoxymethyl ester of indo-1 ([…]) for 30 min, followed by washing twice with PBS^− and resuspension in the same medium to obtain a final cell concentration of 3.22×10^6 cells/ml. Five minutes prior to commencing data acquisition, Ca^++ and Mg^++ are added to give final concentrations of 1.8 and 1 mM, respectively. Calcium measurements are performed at 37° C. using a spectrofluorometer equipped with a temperature-controlled cuvette holder and a magnetic stirrer. The excitation and emission wavelengths are 331 nm and 410 nm, respectively. Following stabilization of the baseline, fluorescence is measured for 1 min, prior to the addition of either vehicle or various concentrations of a potential 5-oxo-ETE antagonist. Two min later, 5-oxo-ETE (10 nM) is added, followed 1 min later by digitonin (final concentration 0.1%). Data acquisition is terminated after a further 0.5 min. In some cases LTB4 (10 nM) is added 2 min after 5-oxo-ETE, followed 0.5 min later by addition of digitonin. Fmax is determined from fluorescence measurements after the addition of digitonin, whereas Fmin is determined after determination of autofluorescence as described in the literature (Gelfand et al, J. Biol. Chem. 261:11520 (1986)). A dissociation constant of 250 nM for the indo-1/Ca^++ complex is used to calculate [Ca^++]i. […] Measurement of Actin Polymerization in Eosinophils

Chain of OXE receptor (Q8TDS5 whole entry): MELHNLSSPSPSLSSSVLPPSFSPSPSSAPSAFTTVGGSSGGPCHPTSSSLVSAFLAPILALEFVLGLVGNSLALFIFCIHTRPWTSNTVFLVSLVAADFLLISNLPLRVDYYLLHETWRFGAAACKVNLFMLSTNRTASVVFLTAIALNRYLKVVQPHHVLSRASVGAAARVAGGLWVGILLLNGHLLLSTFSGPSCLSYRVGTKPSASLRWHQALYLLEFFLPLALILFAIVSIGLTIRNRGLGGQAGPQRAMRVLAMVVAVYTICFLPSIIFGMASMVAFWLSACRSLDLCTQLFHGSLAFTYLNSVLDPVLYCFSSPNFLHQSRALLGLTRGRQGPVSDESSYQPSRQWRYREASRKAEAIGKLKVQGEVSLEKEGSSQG

| SMILES | IC50 [µM] |
| --- | --- |
| CCCCCCc1c(C(=O)c2cccc(C(=O)O)c2)c2cc(Cl)ccc2n1C [Compound 108, 3-(5-Chloro-2-hexyl-1-methyl-1H-indole-3-carbonyl)benzoic acid] | 0.065 |

Same assay, conditions: 5-oxo-ETE 10 nM; human granulocytes; Table 2; read-out: IC50 (μM) Ca^++

| SMILES | IC50 [µM] |
| --- | --- |
| CC(C)CCCCc1cc2ccc(Cl)cc2n1C(=O)CC(C)CC(=O)O (stereo not drawn) [Compound 110, 5-[6-Chloro-2-(5-methyl-hexyl)-indol-1-yl]-3-methyl-5-oxo-pentanoic acid] | 1.03 |
| CCCCCCCc1c(C(=O)CC(C)CC(=O)O)c2cc(Cl)ccc2n1C (racemic) [Compound 113, 5-(5-Chloro-2-heptyl-1-methyl-1H-indol-3-yl)-3-methyl-5-oxo-pentanoic acid] | 0.035 |
| CCCCCCc1c(C(=O)CC(C)CC(=O)O)c2cc(Cl)ccc2n1C (stereo in doubt) [Compound 107, 5-(5-Chloro-2-hexyl-1-methyl-1H-indol-3-yl)-3-(R)-methyl-5-oxo-pentanoic acid] | 0.009 |
| CCCCCCc1c(C(=O)CC(C)CC(=O)NC(C)c2ccccc2)c2cc(Cl)ccc2n1C (stereo not drawn) [Compound 105, 5-(5-chloro-2-hexyl-1-methyl-1H-indol-3-yl)-3-methyl-5-oxo-N-(1-phenylethyl)pentanamide] | > 10 |
| CC(C)CCCCc1c(C(=O)CC(C)CC(=O)O)c2cc(Cl)ccc2n1C (stereo not drawn) [Compound 114, 5-[5-Chloro-1-methyl-2-(5-methyl-hexyl)-1H-indol-3-yl]-3-methyl-5-oxo-pentanoic acid] | 0.011 |
| CCCCCCc1cc2ccc(Cl)cc2n1C(=O)CCC(C)(C)C(=O)O [Compound 116, 5-(6-Chloro-2-hexyl-indol-1-yl)-2,2-dimethyl-5-oxo-pentanoic acid] | > 10 |
| CCCCCCc1c(C(=O)CC(C)CC(=O)O)c2ccccc2n1CC (stereo not drawn) [Compound 102, 5-(1-Ethyl-2-hexyl-1H-indol-3-yl)-3-methyl-5-oxo-pentanoic acid] | 1.6 |
| CC(C)CCCCc1c(C(=O)CC(C)CC(=O)O)c2ccc(Cl)cc2n1C (racemic) [Compound 109, 5-[6-Chloro-1-methyl-2-(5-methyl-hexyl)-1H-indol-3-yl]-3-methyl-5-oxo-pentanoic acid] | 0.175 |
| CC(C)CCCCc1cc2cc(Cl)ccc2n1C(=O)CC(C)CC(=O)O (racemic) [Compound 115, 5-[5-Chloro-2-(5-methyl-hexyl)-indol-1-yl]-3-methyl-5-oxo-pentanoic acid] | 2 |
| CCCCCCc1c(C(=O)C[C@@H](C)CC(=O)O)c2cc(Cl)ccc2n1C [Compound 100, 5-(5-chloro-2-hexyl-1-methyl-1H-indol-3-yl)-3-(R)-methyl-5-oxopentanoic acid] | 0.125 |
| CCCCCCc1c(C(=O)C[C@@H](C)CC(=O)NC(C)c2ccccc2)c2cc(Cl)ccc2n1C (stereo partly drawn) [Compound 106, 5-(5-Chloro-2-hexyl-1-methyl-1H-indol-3-yl)-3-(R)-methyl-5-oxo-pentanoic acid (1-phenyl-ethyl)-amide] | > 10 |
| CCCCCCc1c(C(=O)CCCC(=O)O)c2ccccc2n1C [Compound 5, 5-(2-Hexyl-1-methyl-1H-indol-3-yl)-5-oxo-pentanoic acid] | 2.5 |
| CCCCCCc1c(C(=O)CC(C)CC(=O)O)c2ccccc2n1C (stereo not drawn) [Compound 6, 5-(2-Hexyl-1-methyl-1H-indol-3-yl)-3-methyl-5-oxo-pentanoic acid] | 0.34 |
| CCCCCCc1c(C(=O)CC(C)CC(=O)O)c2ccc(Cl)cc2n1C (stereo not drawn) [Compound 104, 5-(6-Chloro-2-hexyl-1-methyl-1H-indol-3-yl)-3-methyl-5-oxo-pentanoic acid] | 0.119 |
| CCCCCCc1c(C(=O)CC(C)CC(=O)O)c2cc(Cl)ccc2n1CC (stereo not drawn) [Compound 101, 5-(5-Chloro-1-ethyl-2-hexyl-1H-indol-3-yl)-3-methyl-5-oxo-pentanoic acid] | 0.35 |
| CCCCCCc1cc2ccccc2n1C(=O)CCCC(=O)O [Compound 1, 5-(2-Hexyl-indol-1-yl)-5-oxo-pentanoic acid] | 1 |

Same assay, conditions: Table 3; position of hexyl/hexenyl on the scaffold; readout not given, values match Ca^++; read-out: IC50

| SMILES | IC50 [µM] |
| --- | --- |
| CCCCCCc1ccc2ccn(C(=O)CCCC(=O)O)c2c1 [Compound 31, 5-(6-Hexyl-indol-1-yl)-5-oxo-pentanoic acid] | > 10 |
| CCCCCCc1ccc2c(ccn2C(=O)CCCC(=O)O)c1 [Compound 30, 5-(5-Hexyl-indol-1-yl)-5-oxo-pentanoic acid] | > 30 |
| CCCC/C=C/c1ccc2c(ccn2C(=O)CCCC(=O)O)c1 [Compound 28, 5-(5-hex-1-enyl-indol-1-yl)-5-oxo-pentanoic acid] | 6.5 |
| CCCCCCc1cn(C(=O)CCCC(=O)O)c2ccccc12 [Compound 7, 5-(3-Hexyl-indol-1-yl)-5-oxo-pentanoic acid] | > 30 |
| CCCC/C=C/c1cccc2ccn(C(=O)CCCC(=O)O)c12 [Compound 32, 5-(7-Hex-1-enyl-indol-1-yl)-5-oxo-pentanoic acid] | > 10 |
| CCCCCCc1cc2ccccc2n1C(=O)CCCC(=O)O [Compound 1, 5-(2-Hexyl-indol-1-yl)-5-oxo-pentanoic acid] | 1 |
| CCCCCCc1cccc2ccn(C(=O)CCCC(=O)O)c12 [Compound 27, 5-(7-Hexyl-indol-1-yl)-5-oxo-pentanoic acid] | > 30 |

Same assay, conditions: Table 4; R1/R2/R3 variation; readout not given; read-out: IC50

| SMILES | IC50 [µM] |
| --- | --- |
| CCCCCCc1[nH]c2ccccc2c1C(=O)CCCC(=O)O [Compound 10, 5-(2-Hexyl-1H-indol-3-yl)-5-oxo-pentanoic acid] | 11 |
| CCCCCCc1c(C(=O)CCCC(=O)O)c2ccccc2n1C [Compound 5, 5-(2-Hexyl-1-methyl-1H-indol-3-yl)-5-oxo-pentanoic acid] | 3.7 |
| CCCCCCc1c(C(=O)CCCC(=O)O)n(C)c2ccccc12 [Compound 11, 5-(3-Hexyl-1-methyl-1H-indol-2-yl)-5-oxo-pentanoic acid] | > 30 |
| CCCCCCn1cc(C(=O)CCCC(=O)O)c2ccccc21 [Compound 8, 5-(1-Hexyl-1H-indol-3-yl)-5-oxo-pentanoic acid] | > 30 |

Same assay, conditions: Table 5; alkyl chain variation; readout not given, values match Ca^++; read-out: IC50

| SMILES | IC50 [µM] |
| --- | --- |
| CCCCCCc1cc2cc(Cl)ccc2n1C(=O)CCCC(=O)O [Compound 29, 5-(5-Chloro-2-hexyl-indol-1-yl)-5-oxo-pentanoic acid] | 1.4 |
| CCCCc1cc2ccccc2n1C(=O)CCCC(=O)O [Compound 26, 5-(2-Butyl-indol-1-yl)-5-oxo-pentanoic acid] | > 30 |
| CCCC/C=C/c1cc2ccccc2n1C(=O)CCCC(=O)O [Compound 12, 5-(2-Hex-1-enyl-indol-1-yl)-5-oxo-pentanoic acid] | 3.3 |
| CCCCCCCc1cc2ccccc2n1C(=O)CCCC(=O)O [Compound 33, 5-(2-Heptyl-indol-1-yl)-5-oxo-pentanoic acid] | 1.5 |
| CCCCCCCCc1cc2ccccc2n1C(=O)CCCC(=O)O [Compound 25, 5-(2-Octyl-indol-1-yl)-5-oxo-pentanoic acid] | 2.7 |
| CCCCCCCCCCCc1cc2ccccc2n1C(=O)CCCC(=O)O [Compound 23, 5-Oxo-5-(2-undecyl-indol-1-yl)-pentanoic acid] | 25 |
| CCCCCc1cc2ccccc2n1C(=O)CCCC(=O)O [Compound 18, 5-Oxo-5-(2-pentyl-indol-1-yl)-pentanoic acid] | 1.1 |
| CCCCCCCCC/C=C\c1cc2ccccc2n1C(=O)CCCC(=O)O [Compound 20, 5-Oxo-5-(2-undec-1-enyl-indol-1-yl)-pentanoic acid] | 20 |
| CCCCCCc1cc2ccccc2n1C(=O)CCCC(=O)O [Compound 1, 5-(2-Hexyl-indol-1-yl)-5-oxo-pentanoic acid] | 1 |

Same assay, conditions: Table 6; carboxyl side chain variation; readout not given, values match Ca^++; read-out: IC50

| SMILES | IC50 [µM] |
| --- | --- |
| CCCCCCc1cc2ccccc2n1C(=O)C[C@@H](C)CC(=O)O [Compound 3, 5-(2-Hexyl-indol-1-yl)-3(R)-methyl-5-oxo-pentanoic acid] | 0.8 |
| CCCCCCc1cc2ccccc2n1CCCC(=O)O [Compound 16, 4-(2-Hexyl-indol-1-yl)-butyric acid] | 4.5 |
| CCCCCCc1cc2ccccc2n1C(=O)CCC(=O)O [Compound 14, 4-(2-Hexyl-indol-1-yl)-4-oxo-butyric acid] | > 10 |
| CCCCCCc1cc2ccccc2n1C(=O)CC(C)(C)CC(=O)O [Compound 21, 5-(2-Hexyl-indol-1-yl)-3,3-dimethyl-5-oxo-pentanoic acid] | 13 |
| CCCCCCc1cc2ccccc2n1C(=O)CCCC(=O)O [Compound 1, 5-(2-Hexyl-indol-1-yl)-5-oxo-pentanoic acid] | 1 |

Same assay, conditions: Table 7; alkyl variation; readout not given, values match Ca^++; read-out: IC50

| SMILES | IC50 [µM] |
| --- | --- |
| CCCCCCCc1cc2ccccc2n1C(=O)CC(C)CC(=O)O (stereo not drawn) [Compound 34, 5-(2-Heptyl-indol-1-yl)-3-methyl-5-oxo-pentanoic acid] | 0.12 |
| CCCC/C=C/c1ccc2c(ccn2C(=O)CC(C)CC(=O)O)c1 (stereo not drawn) [Compound 17, 5-(5-Hex-1-enyl-indol-1-yl)-3-methyl-5-oxo-pentanoic acid] | 10 |
| CCCCCc1cc2ccccc2n1C(=O)CC(C)CC(=O)O (stereo not drawn) [Compound 19, 3-Methyl-5-oxo-5-(2-pentyl-indol-1-yl)-pentanoic acid] | 0.1 |
